Our source for the EC50 values is patent US12516016B2, “GPX4 inhibitors, pharmaceutical compositions thereof, and their use for treating GPX4-mediated diseases” (EUBULUS BIOTHERAPEUTICS (HONG KONG) LIMITED, priority 2020, dated 2026).

A value given as a limit tells only on which side of the number the result lay.

The test system of one assay is hepatocellular carcinoma cell line Hub-7. The assay can be described thus: Cell proliferation assay (CELL-TITER GLO cell viability). In kind it is cell-based. The conditions noted are these: 24 h, Hub-7 cells, 24 h incubation, read-out: Inhibition of Cell Proliferation EC50. An outline of the steps:
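[…] cells (4,000/well) seeded overnight, then exposed 24 h to compound from 10 μM in 3-fold serial dilutions. Viability read by CELL-TITER GLO luminescence; EC50 values derived.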
In the case of `Cn1ncc2cc(N(C(=O)CCl)C3(C(=O)NCCc4ccccc4)CCOCC3)ccc21` [C22, 4-(2-Chloro-N-(1-methyl-1H-indazol-5-yl)acetamido)-N-phenethyltetrahydro-2H-pyran-4-carboxamide], the EC50 is 500 to 2000 nM.
The same measure, in the same setting: the result for `C#CC(=O)N(c1ccc(N(C)C)cc1)C1(C(=O)NCc2ccccc2)CCOCC1` [A140, N-Benzyl-4-(N-(4-(dimethylamino)phenyl)propiolamido)tetrahydro-2H-pyran-4-carboxamide] reads 100 to 500 nM.
With `C#CC(=O)N(c1ccc(NC(C)=O)cc1)C(C(=O)NC(C)(C)C)c1ccc(N)cc1` (stereo not shown) [A13, N-(4-Acetamidophenyl)-N-(1-(4-aminophenyl)-2-(tert-butylamino)-2-oxoethyl)-propiolamide], the EC50 lay within 2000 to 10000 nM.
Still for that read-out and setting: the result for `C#CC(=O)N(c1ccc(OC)cc1)C(C(=O)NC(C)(C)C)c1cccc(N)c1` (stereo not shown) [A29, N-(1-(3-Aminophenyl)-2-(tert-butylamino)-2-oxoethyl)-N-(4-methoxyphenyl)-propiolamide] reads 500 to 2000 nM.
As to `C#CC(=O)N(Cc1cccc(O)c1)C1(C(=O)NCc2ccccc2)CCCC(C(=O)O)C1` (stereo not shown) [A170, 3-(Benzylcarbamoyl)-3-(N-(3-hydroxybenzyl)propiolamido)cyclohexane-1-carboxylic acid], the EC50 was over 10000 nM.
The same measure, in the same setting: the result for `C#CC(=O)N(c1ccc(N)cc1)C(C(=O)NC(C)(C)C)c1cccc(N)c1` (stereo not shown) [A22, N-(4-Aminophenyl)-N-(1-(3-aminophenyl)-2-(tert-butylamino)-2-oxoethyl)-propiolamide] reads 2000 to 10000 nM; that for `CC(C)N(C(=O)CCl)C(C(=O)NCCc1ccccc1)c1cccs1` (stereo not shown) [C1, 2-chloro-N-isopropyl-N-(2-oxo-2-(phenethylamino)-1-(thiophen-2-yl)ethyl)acetamide], over 10000 nM; that for `O=C(NCCc1ccccc1)C(c1ccc([N+](=O)[O-])cc1)N(C(=O)CCl)c1cccc(Cl)c1` (stereo not shown) [C5, 2-chloro-N-(3-chlorophenyl)-N-(1-(4-nitrophenyl)-2-oxo-2-(phenethylamino)ethyl)acetamide], 100 to 500 nM.
On to `C#CC(=O)N(C1(C(=O)NCc2ccccc2)CCOCC1)C1(c2ccccc2)CC1` [A144, N-Benzyl-4-(N-(1-phenylcyclopropyl)propiolamido)tetrahydro-2H-pyran-4-carboxamide], for which the EC50 is at most 100 nM.
Same read-out and setting: the value for `C#CC(=O)N(c1cccc2c1CCC2=O)C(C(=O)NCc1ccccc1)c1ccccc1` (stereo not shown) [A89, N-(2-(Benzylamino)-2-oxo-1-phenylethyl)-N-(1-oxo-2,3-dihydro-1H-inden-4-yl)propiolamide] was at most 100 nM; that for `C#CC(=O)N(c1cccc(C#N)c1)C(C(=O)NCc1ccccc1)c1ccccc1` (stereo not shown) [A100, N-(2-(Benzylamino)-2-oxo-1-phenylethyl)-N-(3-cyanophenyl)propiolamide] was at most 100 nM.
`C#CC(=O)N(c1cccc(Cl)c1)C1(C(=O)NCC(=O)OCC)CCOCC1` [A191, Ethyl 2-(4-(N-(3-chlorophenyl)propiolamido)tetrahydro-2H-pyran-4-carboxamido)acetate]: the EC50 is 500 to 2000 nM.
For `C=CC(=O)N(Cc1cccc(O)c1)C1(C(=O)NCc2ccccc2)CCOCC1` [B7, N-Benzyl-4-(N-(3-hydroxybenzyl)acrylamido)tetrahydro-2H-pyran-4-carboxamide], the EC50 is over 10000 nM.
With `C#CC(=O)N(c1cccc(Cl)c1)C1(C(=O)NCC(=O)Nc2ccccc2)CCOCC1` [A193, 4-(N-(3-Chlorophenyl)propiolamido)-N-(2-oxo-2-(phenylamino)ethyl)tetrahydro-2H-pyran-4-carboxamide], the EC50 is 100 to 500 nM.
Same read-out and setting: the result for `C#CC(=O)N(c1ccc(OC)cc1OC)C(C(=O)NCC(=O)OCC)c1cccs1` (stereo not shown) [A190, Ethyl 2-(2-(N-(2,4-dimethoxyphenyl)propiolamido)-2-(thiophen-2-yl)acetamido)-acetate] reads 500 to 2000 nM; that for `C#CC(=O)N(c1cccc(-c2ccn(C)n2)c1)C1(C(=O)NCc2ccccc2)CCOCC1` [A136, N-Benzyl-4-(N-(3-(1-methyl-1H-pyrazol-3-yl)phenyl)propiolamido)tetrahydro-2H-pyran-4-carboxamide], 100 to 500 nM.
Consider `C#CC(=O)N(c1ccc2c(c1)C(=O)OC2)C1(C(=O)NCc2ccccc2)CCOCC1` [A149, N-Benzyl-4-(N-(3-oxo-1,3-dihydroisobenzofuran-5-yl)propiolamido)tetrahydro-2H-pyran-4-carboxamide], for which the EC50 was at most 100 nM.
Same read-out and setting: the value for `C#CC(=O)N(c1cccc(Cl)c1)C1(C(=O)NCc2ccccc2)CCC(=O)CC1` [A175, N-Benzyl-1-(N-(3-chlorophenyl)propiolamido)-4-oxocyclohexane-1-carboxamide] was at most 100 nM.
Take `C#CC(=O)N(c1cccc(NC(C)=O)c1)C(C(=O)NCc1ccccc1)c1ccc(N)cc1` (stereo not shown) [A63, N-(3-Acetamidophenyl)-N-(1-(4-aminophenyl)-2-(benzylamino)-2-oxoethyl)-propiolamide]: the EC50 was 2000 to 10000 nM.
As to `C#CC(=O)N(c1cccc(C(=O)OC)c1)C(C(=O)NCc1ccccc1)c1ccccc1` (stereo not shown) [A76, Methyl 3-(N-(2-(benzylamino)-2-oxo-1-phenylethyl)propiolamido)benzoate], the EC50 is at most 100 nM.
As to `CC(=O)Nc1cccc(N(C(=O)CCl)C(C(=O)NCCc2ccccc2)c2ccc([N+](=O)[O-])cc2)c1` (stereo not shown) [C11, N-(3-Acetamidophenyl)-2-chloro-N-(1-(4-nitrophenyl)-2-oxo-2-(phenethyl-amino)ethyl)acetamide], the EC50 was 2000 to 10000 nM.
Take `C#CC(=O)N(CCc1ccccc1)C1(C(=O)NCc2ccccc2)CCCC(C(=O)OC)C1` (stereo not shown) [A166, Methyl 3-(benzylcarbamoyl)-3-(N-phenethylpropiolamido)cyclohexane-1-carboxylate]: the EC50 was in the range of 100 to 500 nM.
In the case of `O=C(CCl)N(c1ccc2c(c1)OCO2)C1(C(=O)NCc2ccccc2)CCOCC1` [C19, 4-(N-(Benzo[d][1,3]dioxol-5-yl)-2-chloroacetamido)-N-benzyltetrahydro-2H-pyran-4-carboxamide], the EC50 lay within 2000 to 10000 nM.
Same read-out and setting: the result for `C#CC(=O)N(c1cccc(Cl)c1)C(C(=O)NCc1ccccc1)C1CCC(C(=O)OC)CC1` (stereo not shown) [A77, Methyl 4-(2-(benzylamino)-1-(N-(3-chlorophenyl)propiolamido)-2-oxoethyl)-cyclohexane-1-carboxylate] reads 100 to 500 nM; that for `C#CC(=O)N(c1ccc(NC(C)=O)cc1)C(C(=O)NC(C)(C)C)c1cccc(N)c1` (stereo not shown) [A23, N-(4-Acetamidophenyl)-N-(1-(3-aminophenyl)-2-(tert-butylamino)-2-oxoethyl)-propiolamide], 2000 to 10000 nM.
Still for that read-out and setting: the result for `C#CC(=O)N(c1ccc(S(N)(=O)=O)cc1)C(C(=O)NC(C)(C)C)c1cccc(N)c1` (stereo not shown) [A25, N-(1-(3-Aminophenyl)-2-(tert-butylamino)-2-oxoethyl)-N-(4-sulfamoylphenyl)-propiolamide] reads over 10000 nM; that for `C#CC(=O)N(c1ccc(C#N)cc1)C(C(=O)NCc1ccccc1)c1cccc(N)c1` (stereo not shown) [A48, N-(1-(3-Aminophenyl)-2-(benzylamino)-2-oxoethyl)-N-(4-cyanophenyl)-propiolamide], at most 100 nM; that for `C#CC(=O)N(c1cccc2c1CCC2=O)C1(C(=O)NCc2ccccc2)CCOCC1` [A148, N-Benzyl-4-(N-(1-oxo-2,3-dihydro-1H-inden-4-yl)propiolamido)tetrahydro-2H-pyran-4-carboxamide], at most 100 nM.
The same measure, in the same setting: the result for `C#CC(=O)N(c1ccc2c(cnn2C)c1)C1(C(=O)NCc2ccccc2)CCCC(=O)C1` (stereo not shown) [A165, N-Benzyl-1-(N-(1-methyl-1H-indazol-5-yl)propiolamido)-3-oxocyclohexane-1-carboxamide] reads 100 to 500 nM; that for `C#CC(=O)N(c1ccc(S(N)(=O)=O)cc1)C(C(=O)NCc1ccccc1)c1cccc(N)c1` (stereo not shown) [A50, N-(1-(3-Aminophenyl)-2-(benzylamino)-2-oxoethyl)-N-(4-sulfamoylphenyl)-propiolamide], over 10000 nM.
`C#CC(=O)N(c1cccc2nonc12)C(C(=O)NCc1ccccc1)c1ccccc1` (stereo not shown) [A106, N-(Benzo[c][1,2,5]oxadiazol-4-yl)-N-(2-(benzylamino)-2-oxo-1-phenylethyl)-propiolamide]: the EC50 fell in the range of 100 to 500 nM.
For the compound `C=C(F)C(=O)N(c1cccc(Cl)c1)C(C(=O)NCc1ccccc1)c1ccc(N)cc1` (stereo not shown) [B3, N-(1-(4-Aminophenyl)-2-(benzylamino)-2-oxoethyl)-N-(3-chlorophenyl)-2-fluoroacrylamide], the EC50 was over 10000 nM.

Still in this assay, the particulars now being: Hub-7 cells, 24 h incubation, read-out: Inhibition of Cell Proliferation EC50.
For the compound `C#CC(=O)N(c1cccc(C(=O)OC)c1)C(C(=O)NC(C)(C)C)c1ccc(N)cc1` (stereo not shown) [A28, Methyl 3-(N-(1-(4-aminophenyl)-2-(tert-butylamino)-2-oxoethyl)-propiolamido)-benzoate], the EC50 is 100 to 500 nM.
On the same count and under the same terms, the value for `C#CC(=O)N(c1cccc(Cl)c1)[C@]1(C(=O)NCc2ccccc2)CC[C@@H](O)CC1` [A111, (1R,4R)—N-Benzyl-1-(N-(3-chlorophenyl)propiolamido)-4-hydroxycyclohexane-carboxamide] was 100 to 500 nM.
